Measured values reported in ChEMBL document CHEMBL3045446, “In vitro antimicrobial and antimycobacterial activity of some chalcones and their derivatives” (2013).
In brackets after ≈: the same amount, converted by molar mass.

Columns and labels:
Assay type in all cases: functional
Proteus vulgaris [1] = assay: Antimicrobial activity against Proteus vulgaris MTCC 1771 assessed as diameter of growth inhibition zone after 24 hr
Aspergillus niger [2] = assay: Antimicrobial activity against Aspergillus niger MTCC 282 assessed as growth inhibition after 48 hr by agar streak dilution method; conditions: MTCC 282, 48 h
Shigella flexneri [3] = assay: Antimicrobial activity against Shigella flexneri MTCC1457 assessed as diameter of growth inhibition zone after 24 hr
Escherichia coli [4] = assay: Antimicrobial activity against Escherichia coli MTCC 739 assessed as growth inhibition after 24 hr by agar streak dilution method; conditions: MTCC 739, 24 h
Proteus vulgaris [5] = assay: Antimicrobial activity against Proteus vulgaris MTCC 1771 assessed as growth inhibition after 24 hr by agar streak dilution method; conditions: MTCC 1771, 24 h
Aspergillus clavatus [6] = assay: Antimicrobial activity against Aspergillus clavatus MTCC 1323 assessed as growth inhibition after 48 hr by agar streak dilution method; conditions: MTCC 1323, 48 h
Aspergillus fumigatus [7] = assay: Antimicrobial activity against Aspergillus fumigatus MTCC 343 assessed as diameter of growth inhibition zone after 48 hr
Candida albicans [8] = assay: Antimicrobial activity against Candida albicans MTCC 183 assessed as diameter of growth inhibition zone after 48 hr
Staphylococcus aureus [9] = assay: Antimicrobial activity against Staphylococcus aureus MTCC 96 assessed as diameter of growth inhibition zone after 24 hr
Candida albicans [10] = assay: Antimicrobial activity against Candida albicans MTCC 183 assessed as growth inhibition after 48 hr by agar streak dilution method; conditions: MTCC 183, 48 h
Bacillus cereus [11] = assay: Antimicrobial activity against Bacillus cereus MTCC 430 assessed as diameter of growth inhibition zone after 24 hr
Salmonella typhi [12] = assay: Antimicrobial activity against Salmonella enterica subsp. enterica serovar Typhi MTCC 733 assessed as diameter of growth inhibition zone after 24 hr
Escherichia coli [13] = assay: Antimicrobial activity against Escherichia coli MTCC 739 assessed as diameter of growth inhibition zone after 24 hr
Salmonella typhi [14] = assay: Antimicrobial activity against Salmonella enterica subsp. enterica serovar Typhi MTCC 733 assessed as growth inhibition after 24 hr by agar streak dilution method; conditions: MTCC 733, 24 h
Aspergillus fumigatus [15] = assay: Antimicrobial activity against Aspergillus fumigatus MTCC 343 assessed as growth inhibition after 48 hr by agar streak dilution method; conditions: MTCC 343, 48 h
Klebsiella pneumoniae [16] = assay: Antimicrobial activity against Klebsiella pneumoniae MTCC 109 assessed as growth inhibition after 24 hr by agar streak dilution method; conditions: MTCC 109, 24 h
Aspergillus clavatus [17] = assay: Antimicrobial activity against Aspergillus clavatus MTCC 1323 assessed as diameter of growth inhibition zone after 48 hr
Klebsiella pneumoniae [18] = assay: Antimicrobial activity against Klebsiella pneumoniae MTCC 109 assessed as diameter of growth inhibition zone after 24 hr
Staphylococcus aureus [19] = assay: Antimicrobial activity against Staphylococcus aureus MTCC 96 assessed as growth inhibition after 24 hr by agar streak dilution method; conditions: MTCC 96, 24 h
Bacillus cereus [20] = assay: Antimicrobial activity against Bacillus cereus MTCC 430 assessed as growth inhibition after 24 hr by agar streak dilution method; conditions: MTCC 430, 24 h
[21] = test system: Mycobacterium tuberculosis; assay: Antituberculosis activity against Mycobacterium tuberculosis H37Rv assessed as growth inhibition after 12 to 28 days by L-J MIC method; conditions: for MIC: Mycobacterium tuberculosis, H37Rv
Pseudomonas aeruginosa [22] = assay: Antimicrobial activity against Pseudomonas aeruginosa MTCC 741 assessed as growth inhibition after 24 hr by agar streak dilution method; conditions: MTCC 741, 24 h
Aspergillus niger [23] = assay: Antimicrobial activity against Aspergillus niger MTCC 282 assessed as diameter of growth inhibition zone after 48 hr
Pseudomonas aeruginosa [24] = assay: Antimicrobial activity against Pseudomonas aeruginosa MTCC 741 assessed as diameter of growth inhibition zone after 24 hr
Shigella flexneri [25] = assay: Antimicrobial activity against Shigella flexneri MTCC1457 assessed as growth inhibition after 24 hr by agar streak dilution method; conditions: MTCC1457, 24 h

SMILES	diameter of the inhibition zone (DIZ) (Proteus vulgaris [1])	MIC (Aspergillus niger [2])	diameter of the inhibition zone (DIZ) (Shigella flexneri [3])	MIC (Proteus vulgaris [5])	MIC (Aspergillus clavatus [6])	diameter of the inhibition zone (DIZ) (Aspergillus fumigatus [7])	diameter of the inhibition zone (DIZ) (Candida albicans [8])	diameter of the inhibition zone (DIZ) (Staphylococcus aureus [9])	MIC (Candida albicans [10])	diameter of the inhibition zone (DIZ) (Bacillus cereus [11])	diameter of the inhibition zone (DIZ) (Salmonella typhi [12])	diameter of the inhibition zone (DIZ) (Escherichia coli [13])	MIC (Salmonella typhi [14])	MIC (Aspergillus fumigatus [15])	MIC (Klebsiella pneumoniae [16])	diameter of the inhibition zone (DIZ) (Aspergillus clavatus [17])	diameter of the inhibition zone (DIZ) (Klebsiella pneumoniae [18])	MIC (Staphylococcus aureus [19])	growth inhibition (GI) [21]	MIC [21]	further results
CC(=O)N1N=C(c2ccc(Nc3cc(=O)oc4ccccc34)cc2)CC1c1ccc([N+](=O)[O-])cc1 (stereo not given)	<10 mm	100 µg/mL (≈ 213 µM)	13 mm	100 µg/mL (≈ 213 µM)	50 µg/mL (≈ 107 µM)	13 mm	15 mm	12 mm	100 µg/mL (≈ 213 µM)	11 mm	17 mm	14 mm	100 µg/mL (≈ 213 µM)	100 µg/mL (≈ 213 µM)	100 µg/mL (≈ 213 µM)	17 mm	13 mm	100 µg/mL (≈ 213 µM)	96%	500 µg/mL (≈ 1070 µM)	MIC (Escherichia coli [4]): 100 µg/mL (≈ 213 µM); MIC (Bacillus cereus [20]): 100 µg/mL (≈ 213 µM); MIC (Pseudomonas aeruginosa [22]): 100 µg/mL (≈ 213 µM); diameter of the inhibition zone (DIZ) (Aspergillus niger [23]): 14 mm; diameter of the inhibition zone (DIZ) (Pseudomonas aeruginosa [24]): 11 mm; MIC (Shigella flexneri [25]): 100 µg/mL (≈ 213 µM)
N#Cc1c(-c2ccc(F)cc2)cc(-c2ccc(Nc3cc(=O)oc4ccccc34)cc2)nc1N	29 mm	12.5 µg/mL (≈ 27.9 µM)	24 mm	3.12 µg/mL (≈ 6.96 µM)	6.25 µg/mL (≈ 13.9 µM)	28 mm	22 mm	25 mm	12.5 µg/mL (≈ 27.9 µM)	28 mm	26 mm	27 mm	6.25 µg/mL (≈ 13.9 µM)	3.12 µg/mL (≈ 6.96 µM)	3.12 µg/mL (≈ 6.96 µM)	28 mm	28 mm	6.25 µg/mL (≈ 13.9 µM)	97%	50 µg/mL (≈ 111 µM)	MIC (Escherichia coli [4]): 3.12 µg/mL (≈ 6.96 µM); MIC (Bacillus cereus [20]): 3.12 µg/mL (≈ 6.96 µM); MIC (Pseudomonas aeruginosa [22]): 3.12 µg/mL (≈ 6.96 µM); diameter of the inhibition zone (DIZ) (Aspergillus niger [23]): 23 mm; diameter of the inhibition zone (DIZ) (Pseudomonas aeruginosa [24]): 29 mm; MIC (Shigella flexneri [25]): 12.5 µg/mL (≈ 27.9 µM)
CC(=O)N1N=C(c2ccc(Nc3cc(=O)oc4ccccc34)cc2)CC1c1ccc(C)cc1 (stereo not given)	20 mm	50 µg/mL (≈ 114 µM)	20 mm	50 µg/mL (≈ 114 µM)	100 µg/mL (≈ 229 µM)	15 mm	14 mm	16 mm	100 µg/mL (≈ 229 µM)	16 mm	14 mm	12 mm	100 µg/mL (≈ 229 µM)	100 µg/mL (≈ 229 µM)	100 µg/mL (≈ 229 µM)	11 mm	13 mm	100 µg/mL (≈ 229 µM)	98%	200 µg/mL (≈ 457 µM)	MIC (Escherichia coli [4]): 100 µg/mL (≈ 229 µM); MIC (Bacillus cereus [20]): 100 µg/mL (≈ 229 µM); MIC (Pseudomonas aeruginosa [22]): 100 µg/mL (≈ 229 µM); diameter of the inhibition zone (DIZ) (Aspergillus niger [23]): 19 mm; diameter of the inhibition zone (DIZ) (Pseudomonas aeruginosa [24]): 16 mm; MIC (Shigella flexneri [25]): 50 µg/mL (≈ 114 µM)
CC(=O)N1N=C(c2ccc(Nc3cc(=O)oc4ccccc34)cc2)CC1c1ccc(O)cc1O (stereo not given)	22 mm	25 µg/mL (≈ 54.9 µM)	20 mm	12.5 µg/mL (≈ 27.4 µM)	25 µg/mL (≈ 54.9 µM)	24 mm	17 mm	19 mm	50 µg/mL (≈ 110 µM)	20 mm	21 mm	20 mm	25 µg/mL (≈ 54.9 µM)	12.5 µg/mL (≈ 27.4 µM)	6.25 µg/mL (≈ 13.7 µM)	22 mm	23 mm	50 µg/mL (≈ 110 µM)	97%	250 µg/mL (≈ 549 µM)	MIC (Escherichia coli [4]): 25 µg/mL (≈ 54.9 µM); MIC (Bacillus cereus [20]): 50 µg/mL (≈ 110 µM); MIC (Pseudomonas aeruginosa [22]): 25 µg/mL (≈ 54.9 µM); diameter of the inhibition zone (DIZ) (Aspergillus niger [23]): 21 mm; diameter of the inhibition zone (DIZ) (Pseudomonas aeruginosa [24]): 22 mm; MIC (Shigella flexneri [25]): 25 µg/mL (≈ 54.9 µM)
NNC(=O)c1ccncc1 [ISONIAZID]	–	–	–	–	–	–	–	–	–	–	–	–	–	–	–	–	–	–	99%	0.2 µg/mL (≈ 1.46 µM)	–
CC[C@@H](CO)NCCN[C@@H](CC)CO [ETHAMBUTOL]	–	–	–	–	–	–	–	–	–	–	–	–	–	–	–	–	–	–	99%	3.12 µg/mL (≈ 15.3 µM)	–
CO[C@H]1/C=C/O[C@@]2(C)Oc3c(C)c(O)c4c(O)c(c(/C=N/N5CCN(C)CC5)c(O)c4c3C2=O)NC(=O)/C(C)=C\C=C\[C@H](C)[C@H](O)[C@@H](C)[C@@H](O)[C@@H](C)[C@H](OC(C)=O)[C@@H]1C [RIFAMPIN]	–	–	–	–	–	–	–	–	–	–	–	–	–	–	–	–	–	–	99%	0.25 µg/mL (≈ 0.304 µM)	–
CC(=O)N1CCN(c2ccc(OCC3COC(Cn4ccnc4)(c4ccc(Cl)cc4Cl)O3)cc2)CC1 (stereo not given) [KETOCONAZOLE]	–	≤ 3 µg/mL	–	–	1 µg/mL (≈ 1.88 µM)	29 mm	33 mm	–	1 µg/mL (≈ 1.88 µM)	–	–	–	–	1 µg/mL (≈ 1.88 µM)	–	31 mm	–	–	–	–	diameter of the inhibition zone (DIZ) (Aspergillus niger [23]): 30 mm
O=C(O)c1cn(C2CC2)c2cc(N3CCNCC3)c(F)cc2c1=O [CIPROFLOXACIN]	31 mm	–	32 mm	1 µg/mL (≈ 3.02 µM)	–	–	–	30 mm	–	31 mm	30 mm	32 mm	1 µg/mL (≈ 3.02 µM)	–	1 µg/mL (≈ 3.02 µM)	–	33 mm	1 µg/mL (≈ 3.02 µM)	–	–	MIC (Bacillus cereus [20]): 1 µg/mL (≈ 3.02 µM); MIC (Pseudomonas aeruginosa [22]): 1 µg/mL (≈ 3.02 µM); diameter of the inhibition zone (DIZ) (Pseudomonas aeruginosa [24]): 33 mm; MIC (Shigella flexneri [25]): ≤ 3 µg/mL
NC(=O)c1cnccn1 [PYRAZINAMIDE]	–	–	–	–	–	–	–	–	–	–	–	–	–	–	–	–	–	–	99%	6.25 µg/mL (≈ 50.8 µM)	–
